# Test results reported in patent US20050009840A1 (SUGEN, INC., priority 2003, published 2005).
# Biological target: T1, HGFR (Homo sapiens, UniProt P08581)
# T1 construct: purchased Upstate 14-526
# Assay: HGFR continuous-coupled spectrophotometric assay
# Type: biochemical
# Conditions: at 1 pM; Table 7, library procedure 42; read-out: % Inhibition (percent c-MET inhibition)
# T1 sequence (P08581 974-1390 limits assumed): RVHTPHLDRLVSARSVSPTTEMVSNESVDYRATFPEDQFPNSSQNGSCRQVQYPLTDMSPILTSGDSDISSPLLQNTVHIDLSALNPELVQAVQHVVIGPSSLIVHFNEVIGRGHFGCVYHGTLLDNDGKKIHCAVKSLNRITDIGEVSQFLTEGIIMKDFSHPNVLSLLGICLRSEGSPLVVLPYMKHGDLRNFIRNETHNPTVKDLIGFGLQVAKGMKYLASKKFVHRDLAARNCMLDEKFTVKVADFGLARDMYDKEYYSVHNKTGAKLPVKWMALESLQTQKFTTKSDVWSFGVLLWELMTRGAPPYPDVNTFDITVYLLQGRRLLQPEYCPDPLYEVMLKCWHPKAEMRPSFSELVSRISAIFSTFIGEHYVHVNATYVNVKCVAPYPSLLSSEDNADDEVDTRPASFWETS
row,Structure (SMILES),inhibition at 1 pM [%]
1,Nc1ncc(-c2ccc(C(=O)N3CCC(N4CCCC4)CC3)cc2)cc1OCc1ccc(F)c(F)c1,19
2,CC(C)c1ccc(COc2cc(-c3ccc(C(=O)N4CCC(N5CCCC5)CC4)cc3)cnc2N)cc1,32
3,Nc1ncc(-c2ccc(C(=O)N3CCC(N4CCCC4)CC3)cc2)cc1OCc1ccccc1-c1ccccc1,22
4,COc1cc(COc2cc(-c3ccc(C(=O)N4CCC(N5CCCC5)CC4)cc3)cnc2N)cc(OC)c1OC,10
5,Nc1ncc(-c2ccc(C(=O)N3CCC(N4CCCC4)CC3)cc2)cc1OCc1cc(Cl)cc(Cl)c1,19
6,Nc1ncc(-c2ccc(C(=O)N3CCC(N4CCCC4)CC3)cc2)cc1OCc1cccc(Oc2ccccc2)c1,34
7,Nc1ncc(-c2ccc(C(=O)N3CCC(N4CCCC4)CC3)cc2)cc1OCc1cccc(Cl)c1Cl,40
8,Cc1ccc(COc2cc(-c3ccc(C(=O)N4CCC(N5CCCC5)CC4)cc3)cnc2N)cc1Cl,26
9,Nc1ncc(-c2ccc(C(=O)N3CCC(N4CCCC4)CC3)cc2)cc1OCc1cc(Cl)ccc1Cl,26
10,Nc1ncc(-c2ccc(C(=O)N3CCC(N4CCCC4)CC3)cc2)cc1OCc1nc(CS(=O)(=O)c2ccccn2)no1,9
11,Nc1ncc(-c2ccc(C(=O)N3CCC(N4CCCC4)CC3)cc2)cc1OCc1cc(-c2c(Cl)cccc2Cl)no1,14
12,CC(=O)N(c1ccc(C)cc1)c1nc(COc2cc(-c3ccc(C(=O)N4CCC(N5CCCC5)CC4)cc3)cnc2N)cs1,9
13,CC(Oc1cc(-c2ccc(C(=O)N3CCC(N4CCCC4)CC3)cc2)cnc1N)c1ccccc1 (centres unmarked),10
14,Nc1ncc(-c2ccc(C(=O)N3CCC(N4CCCC4)CC3)cc2)cc1OCc1cccc(OC(F)(F)F)c1,13
15,Cc1cc(COc2cc(-c3ccc(C(=O)N4CCC(N5CCCC5)CC4)cc3)cnc2N)nc(-c2ccc(C(F)(F)F)cn2)n1,8
16,Nc1ncc(-c2ccc(C(=O)N3CCC(N4CCCC4)CC3)cc2)cc1OCc1cc(F)ccc1Br,24

row,Structure (SMILES),inhibition at 1 pM [%]
1,Cc1cc(C)cc(COc2cc(-c3ccc(C(=O)N4CCC(N5CCCC5)CC4)cc3)cnc2N)c1,14
2,COc1cccc(COc2cc(-c3ccc(C(=O)N4CCC(N5CCCC5)CC4)cc3)cnc2N)c1,15
3,Nc1ncc(-c2ccc(C(=O)N3CCC(N4CCCC4)CC3)cc2)cc1OCc1ccc(Cl)cc1,15
4,Nc1ncc(-c2ccc(C(=O)N3CCC(N4CCCC4)CC3)cc2)cc1OCc1cccc(Cl)c1F,28
5,Nc1ncc(-c2ccc(C(=O)N3CCC(N4CCCC4)CC3)cc2)cc1OCc1ccc(Cl)c(Cl)c1,26
6,Nc1ncc(-c2ccc(C(=O)N3CCC(N4CCCC4)CC3)cc2)cc1OCc1cc(F)c(F)cc1F,12
7,Nc1ncc(-c2ccc(C(=O)N3CCC(N4CCCC4)CC3)cc2)cc1OCc1ccc(F)c(F)c1F,15
8,Nc1ncc(-c2ccc(C(=O)N3CCC(N4CCCC4)CC3)cc2)cc1OCc1ccc(C(F)(F)F)cc1C(F)(F)F,12
9,Nc1ncc(-c2ccc(C(=O)N3CCC(N4CCCC4)CC3)cc2)cc1OCc1c(F)ccc(F)c1F,30
10,Nc1ncc(-c2ccc(C(=O)N3CCC(N4CCCC4)CC3)cc2)cc1OCc1ccc(C(F)(F)F)cc1,10
11,Cc1cccc(COc2cc(-c3ccc(C(=O)N4CCC(N5CCCC5)CC4)cc3)cnc2N)c1F,28
12,CC(Oc1cc(-c2ccc(C(=O)N3CCC(N4CCCC4)CC3)cc2)cnc1N)c1ccccc1C(F)(F)F (centres unmarked),21
13,CC(=O)Nc1nc(COc2cc(-c3ccc(C(=O)N4CCC(N5CCCC5)CC4)cc3)cnc2N)cs1,9
14,Nc1ncc(-c2ccc(C(=O)N3CCC(N4CCCC4)CC3)cc2)cc1OCc1ccccc1CS(=O)(=O)c1ccccc1,11
15,Nc1ncc(-c2ccc(C(=O)N3CCC(N4CCCC4)CC3)cc2)cc1OC1OC(=O)c2ccccc21 (centres unmarked),4
16,Nc1ncc(-c2ccc(C(=O)N3CCC(N4CCCC4)CC3)cn2)cc1OCc1ccc(-c2csnn2)cc1,41
